Experimental data published in US11753446B2, “Beta-hairpin peptidomimetics” (POLYPHOR AG, priority 2014, dated 2023).
Read-outs that look alike come from different tables or passages of the source. Where a SMILES comes first, the peptide text is derived from it. Bridges are numbered along the chain shown (N, C = ends). [ ]: non-standard residue; d: D form. Tle = CC(C)(C)[C@H](N)C(=O)O; dDab = NCC[C@@H](N)C(=O)O; NMeA = CN[C@@H](C)C(=O)O; Orn = NCCC[C@H](N)C(=O)O; Dab = NCC[C@H](N)C(=O)O; Dap = NC[C@H](N)C(=O)O

What was measured:
[1] = system: Acinetobacter baumannii DSM 30008; format: cell-based
How it was run: (§1)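 Peptide MICs were determined by NCCLS broth microdilution in cation-adjusted Mueller-Hinton II broth. Inoculum was about 10^6 CFU/mL, matched to 0.5 McFarland, with peptides in two-fold serial dilutions. The broth contained Polysorbate 80 at 0.002% final concentration.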

[2] = system: Escherichia coli ATCC 25922; format: cell-based
How it was run: as §1

[3] = system: Klebsiella pneumoniae ATCC 13883; format: cell-based
How it was run: as §1

[4] = system: human red blood cells (hRBC); test: Hemolysis: hemolytic activity at 100 μg/mL, 1 h at 37° C.
How it was run: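 Peptides at 100 μg/mL incubated with washed 20% (v/v) human erythrocytes (~0.9×10^9 cells/mL) for 1 h at 37 °C with shaking. Released hemoglobin read at OD 540 nm in supernatant; 0% and 100% lysis from PBS/0.001% acetic acid and 2.5% Triton X-100.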

[5] = Mueller-Hinton II broth, 18-20 hours at 35° C.

SMILES	Acinetobacter baumannii DSM 30008 MIC ([1]; DSM 30008) [mg/L]	Escherichia coli ATCC 25922 MIC ([2]; ATCC 25922) [mg/L]	Klebsiella pneumoniae ATCC 13883 MIC ([3]; ATCC 13883) [mg/L]	Hemolysis at 100 μg/mL ([4]; red cells of human, 1 h, 100) [%]	Acinetobacter baumannii DSM 30008 MIC [1, 5] [mg/L]	Escherichia coli ATCC 25922 MIC [2, 5] [mg/L]	Klebsiella pneumoniae ATCC 13883 MIC [3, 5] [mg/L]	Hemolysis at 100 μg/mL ([4]; 100 μg/mL, 20% hRBC, 1 h at 37° C.) [%]
CC(C)C[C@@H]1NC(=O)[C@@H]2CSSC[C@H](NC(=O)[C@H](C(C)C)NC(=O)[C@H](CCCNC(=N)N)NC(=O)[C@@H](CCN)NC1=O)C(=O)N[C@@H](Cc1ccc(O)cc1)C(=O)N[C@@H](CC(N)=O)C(=O)N[C@@H](CCCN)C(=O)N[C@H](CCN)C(=O)N[C@@H](CCN)C(=O)N[C@@H](Cc1c[nH]c3ccccc13)C(=O)N[C@@H](CO)C(=O)N[C@@H](Cc1ccc(O)cc1)C(=O)N2 [Example 69, cyclo(-Val-Cys-Tyr-Asn-Orn-^DDab-Dab-Trp-Ser-Tyr-Cys-Leu-^DDab-Arg-)] (HELM PEPTIDE1{C.L.[NCC[C@@H](N[*:1])C(=O)[*:2]].R.V.C.Y.N.[Orn].[NCC[C@@H](N[*:1])C(=O)[*:2]].[Dab].W.S.Y}$PEPTIDE1,PEPTIDE1,1:R3-6:R3|PEPTIDE1,PEPTIDE1,1:R1-14:R2$$$V2.0)	1	1	1	1	–	–	–	–
CC(C)C[C@@H]1NC(=O)[C@H](CCN)NC(=O)[C@@H](CCN)NC(=O)[C@H](CO)NC(=O)[C@H](C)NC(=O)[C@H](Cc2ccc(O)cc2)NC(=O)[C@@H]2CSSC[C@H](NC(=O)[C@H](Cc3ccc(O)cc3)NC(=O)[C@H](CO)NC1=O)C(=O)N[C@@H](CCCN)C(=O)N[C@H](CCN)C(=O)N[C@@H](CCN)C(=O)N[C@@H](Cc1c[nH]c3ccccc13)C(=O)N2 [Example 38, cyclo(-Leu-Ser-Tyr-Cys-Orn-^DDab-Dab-Trp-Cys-Tyr-Ala-Ser-^DDab-Dab-)] (HELM PEPTIDE1{A.S.[NCC[C@@H](N[*:1])C(=O)[*:2]].[Dab].L.S.Y.C.[Orn].[NCC[C@@H](N[*:1])C(=O)[*:2]].[Dab].W.C.Y}$PEPTIDE1,PEPTIDE1,8:R3-13:R3|PEPTIDE1,PEPTIDE1,1:R1-14:R2$$$V2.0)	3	2	2	1	–	–	–	–
CC(C)C[C@@H]1NC(=O)[C@H](CN)NC(=O)[C@@H](CCN)NC(=O)[C@H](C(C)C)NC(=O)[C@@H]2CSSC[C@H](NC1=O)C(=O)N[C@@H](Cc1ccc(O)cc1)C(=O)N[C@@H](CC(N)=O)C(=O)N[C@@H](CCCN)C(=O)N[C@H](CCN)C(=O)N[C@@H](CCN)C(=O)N[C@@H](Cc1c[nH]c3ccccc13)C(=O)N[C@@H](CO)C(=O)N[C@@H](Cc1ccc(O)cc1)C(=O)N2 [Example 68, cyclo(-Leu-Cys-Tyr-Asn-Orn-^DDab-Dab-Trp-Ser-Tyr-Cys-Val-^DDab-Dap-)] (cyclo(CV[dDab][Dap]LCYN[Orn][dDab][Dab]WSY); disulfide 1-6)	1.25	0.75	0.5	1	–	–	–	–
CC(C)C[C@@H]1NC(=O)[C@H](CCCNC(=N)N)NC(=O)[C@@H](CCCNC(=N)N)NC(=O)[C@H](C(C)C)NC(=O)[C@@H]2CSSC[C@H](NC1=O)C(=O)N[C@@H](Cc1ccc(O)cc1)C(=O)N[C@@H](CC(N)=O)C(=O)N[C@@H](CCCN)C(=O)N[C@H](CCN)C(=O)N[C@@H](CCN)C(=O)N[C@@H](Cc1c[nH]c3ccccc13)C(=O)N[C@@H](CO)C(=O)N[C@@H](Cc1ccc(O)cc1)C(=O)N2 [Example 66, cyclo(-Leu-Cys-Tyr-Asn-Orn-^DDab-Dab-Trp-Ser-Tyr-Cys-Val-^DArg-Arg-)] (HELM PEPTIDE1{C.V.[dR].R.L.C.Y.N.[Orn].[NCC[C@@H](N[*:1])C(=O)[*:2]].[Dab].W.S.Y}$PEPTIDE1,PEPTIDE1,1:R3-6:R3|PEPTIDE1,PEPTIDE1,1:R1-14:R2$$$V2.0)	1.25	1	0.5	2	–	–	–	–
CC(C)C[C@@H]1NC(=O)[C@H](CCCNC(=N)N)NC(=O)[C@H]2CCCN2C(=O)[C@H](C(C)C)NC(=O)[C@H]([C@@H](C)O)NC(=O)[C@H](C(C)C)NC(=O)[C@@H]2CSSC[C@H](NC(=O)[C@H](Cc3ccc(O)cc3)NC(=O)[C@H]([C@@H](C)O)NC1=O)C(=O)N[C@@H](CCN)C(=O)N[C@H](CCN)C(=O)N[C@@H](CCN)C(=O)N[C@@H](Cc1c[nH]c3ccccc13)C(=O)N2 [Example 36, cyclo(-Leu-Thr-Tyr-Cys-Dab-^DDab-Dab-Trp-Cys-Val-Thr-Val-^DPro-Arg-)] (HELM PEPTIDE1{C.[Dab].[NCC[C@@H](N[*:1])C(=O)[*:2]].[Dab].W.C.V.T.V.[dP].R.L.T.Y}$PEPTIDE1,PEPTIDE1,1:R3-6:R3|PEPTIDE1,PEPTIDE1,1:R1-14:R2$$$V2.0)	2	4	2	2	–	–	–	–
CC(C)C[C@@H]1NC(=O)[C@H](CCCNC(=N)N)NC(=O)[C@@H](CCN)NC(=O)[C@H](C(C)C)NC(=O)[C@@H]2CSSC[C@H](NC1=O)C(=O)N[C@@H](Cc1ccc(O)cc1)C(=O)N[C@@H](C)C(=O)N[C@@H](CCCN)C(=O)N[C@H](CCN)C(=O)N[C@@H](CCN)C(=O)N[C@@H](Cc1c[nH]c3ccccc13)C(=O)N[C@@H](C)C(=O)N[C@@H](Cc1ccc(O)cc1)C(=O)N2 [Example 23, cyclo(-Leu-Cys-Tyr-Ala-Orn-^DDab-Dab-Trp-Ala-Tyr-Cys-Val-^DDab-Arg-)] (HELM PEPTIDE1{A.[Orn].[NCC[C@@H](N[*:1])C(=O)[*:2]].[Dab].W.A.Y.C.V.[NCC[C@@H](N[*:1])C(=O)[*:2]].R.L.C.Y}$PEPTIDE1,PEPTIDE1,8:R3-13:R3|PEPTIDE1,PEPTIDE1,1:R1-14:R2$$$V2.0)	0.75	2	1	1	–	–	–	–
CC(C)C[C@@H]1NC(=O)[C@H](CCCNC(=N)N)NC(=O)[C@H]2CCCN2C(=O)[C@H](C(C)C)NC(=O)[C@@H]2CSSC[C@H](NC1=O)C(=O)N[C@@H](Cc1ccc(O)cc1)C(=O)N[C@@H](C)C(=O)N[C@@H](CCN)C(=O)N[C@@H](CCN)C(=O)N[C@@H](CCN)C(=O)N[C@@H](Cc1c[nH]c3ccccc13)C(=O)N[C@@H](C)C(=O)N[C@@H](C(C)C)C(=O)N2 [Example 1, cyclo(-Leu-Cys-Tyr-Ala-Dab-Dab-Dab-Trp-Ala-Val-Cys-Val-^DPro-Arg-)] (HELM PEPTIDE1{A.[Dab].[Dab].[Dab].W.A.V.C.V.[dP].R.L.C.Y}$PEPTIDE1,PEPTIDE1,8:R3-13:R3|PEPTIDE1,PEPTIDE1,1:R1-14:R2$$$V2.0)	–	–	–	–	0.75	2	1	5
CC(C)[C@@H]1NC(=O)[C@H](C)N(C)C(=O)[C@H]2CCCN2C(=O)[C@H](CO)NC(=O)[C@H](C)NC(=O)[C@H](C(C)(C)C)NC(=O)[C@H](CCN)NC(=O)[C@H](Cc2c[nH]c3ccccc23)NC(=O)[C@H](CCN)NC(=O)[C@@H](CCN)NC(=O)[C@H](CN)NC(=O)[C@H](CCN)NC(=O)[C@H](Cc2ccc(O)cc2)NC(=O)[C@H](CO)NC1=O [Example 44, cyclo(-Val-Ser-Tyr-Dab-Dap-^DDab-Dab-Trp-Dab-tBuGly-Ala-Ser-^DPro-NMeAla-)] (cyclo(AS[dP][NMeA]VSY[Dab][Dap][dDab][Dab]W[Dab][Tle]))	2	1	0.5	1	–	–	–	–
